Patent US20110177054A1, “USE OF ENDO-LYSOSOMAL SYSTEM AND SECRETED VESICLES (EXOSOME-LIKE) IN TREATMENTS AND DIAGNOSTICS BASED ON SMALL RNA AND EXPERIMENTAL STUDY OF SMALL RNA” (priority 2008, published 2011)

Experiments:
BIG2 = target: T1, BIG2 (Homo sapiens, UniProt Q9Y6D5); experiment: Exosome release after RNAi of BIG2 (protein in purified exosome pellets); type: cell-based
T1 construct: endogenous in cells; host or cells: Mono-Mac6 monocytic cells
Protocol: FIG. 5: Differential centrifugation enriches exosomes greatly. (A) Western blot of 50 μg of cell or exosome lysate with markers of exosomes (CD63, Tfr R, or Ub). (B) Cell counts and total protein quantitation of exosome pellets 36 h after transfection of cells with siRNA targeting BIG2 or control. (C) Electron microscopy of resuspended exosome pellets after uranyl acetate staining. (D) Dynamic light scattering analysis of purified exosome pellets resuspended in PBS (Phosphate buffered saline). Top graph represents five sets of measurements as size in nm (x-axis) as a function of relative number (y-axis) of particles detected. Bottom graph represents size in nm (x-axis) as a function of volume (y-axis). Measurements by volume exponentially amplify the representation of larger particles present.
FIG. 9: Purified exosomes are enriched in GW182, but not Dcp1a or Ge-1. (a) Equal amounts of proteins from exosomes and cells were analyzed by western blotting for exosome-enriched protein, CD63. Electron microscopy of resuspended exosome pellets. […] Error bars, SEM of five measurements. (c) RNAi of BIG2 reduces the recovery of proteins in exosome preparations (paired t-test, n=4, p=0.0194, a=0.05). […] (d) Equal amounts of proteins from exosomes and whole cells were analyzed by western blotting. […]

[1] = test system: miR-K12-4 target reporter; experiment: Intercellular transfer of miR-K12-4 by exosomes (psiCHECK dual luciferase reporter in target cells); type: cell-based; details: BIG2 siRNA delivered to exosome producing cells simultaneously with miR-K12-4 or miR-206 plasmids
Protocol: FIG. 7: exosomes transfer active siRNA and miRNA to target cells in a BIG2-dependent manner. (A) Exosomes purified from cells transfected with GFP siRNA or control siRNA were incubated with cells transfected with GFP. GFP expression was examined 8 hours or 24 hours later by flow cytometry. GFP expression was calculated as 1-(GFP expression GFP siRNA exosomes/GFP expression control siRNA exosomes)×100. (n=3, p<0.05, paired t-test). (B) Exosomes purified from cells transfected with miR-206 or miR-K12-4 were incubated with cells transfected with a target site for miR-K12-4 inserted into the psiCHECK dual luciferase plasmid. Activity of luciferases was measured 8 hours later. Inhibition of Firefly luciferase expression was calculated as: 1-(Firefly luciferase/Renilla luciferase miR-K12-4 exosomes)/(Firefly luciferase/Renilla luciferase miR-206 exosomes)×100. (n=4, p<0.05, paired t-test). Error bars represent standard error of the mean.
FIG. 8: Exosomes mediate transfer of miRNA activity in a BIG2-dependent manner. […] Activity of luciferases was measured after 8 hours (n=4, p=0.0287, t-test, a=0.05). […] GFP expression was measured by FACS analysis after 8 or 24 h (right). […]

T1 sequence (Q9Y6D5 whole entry): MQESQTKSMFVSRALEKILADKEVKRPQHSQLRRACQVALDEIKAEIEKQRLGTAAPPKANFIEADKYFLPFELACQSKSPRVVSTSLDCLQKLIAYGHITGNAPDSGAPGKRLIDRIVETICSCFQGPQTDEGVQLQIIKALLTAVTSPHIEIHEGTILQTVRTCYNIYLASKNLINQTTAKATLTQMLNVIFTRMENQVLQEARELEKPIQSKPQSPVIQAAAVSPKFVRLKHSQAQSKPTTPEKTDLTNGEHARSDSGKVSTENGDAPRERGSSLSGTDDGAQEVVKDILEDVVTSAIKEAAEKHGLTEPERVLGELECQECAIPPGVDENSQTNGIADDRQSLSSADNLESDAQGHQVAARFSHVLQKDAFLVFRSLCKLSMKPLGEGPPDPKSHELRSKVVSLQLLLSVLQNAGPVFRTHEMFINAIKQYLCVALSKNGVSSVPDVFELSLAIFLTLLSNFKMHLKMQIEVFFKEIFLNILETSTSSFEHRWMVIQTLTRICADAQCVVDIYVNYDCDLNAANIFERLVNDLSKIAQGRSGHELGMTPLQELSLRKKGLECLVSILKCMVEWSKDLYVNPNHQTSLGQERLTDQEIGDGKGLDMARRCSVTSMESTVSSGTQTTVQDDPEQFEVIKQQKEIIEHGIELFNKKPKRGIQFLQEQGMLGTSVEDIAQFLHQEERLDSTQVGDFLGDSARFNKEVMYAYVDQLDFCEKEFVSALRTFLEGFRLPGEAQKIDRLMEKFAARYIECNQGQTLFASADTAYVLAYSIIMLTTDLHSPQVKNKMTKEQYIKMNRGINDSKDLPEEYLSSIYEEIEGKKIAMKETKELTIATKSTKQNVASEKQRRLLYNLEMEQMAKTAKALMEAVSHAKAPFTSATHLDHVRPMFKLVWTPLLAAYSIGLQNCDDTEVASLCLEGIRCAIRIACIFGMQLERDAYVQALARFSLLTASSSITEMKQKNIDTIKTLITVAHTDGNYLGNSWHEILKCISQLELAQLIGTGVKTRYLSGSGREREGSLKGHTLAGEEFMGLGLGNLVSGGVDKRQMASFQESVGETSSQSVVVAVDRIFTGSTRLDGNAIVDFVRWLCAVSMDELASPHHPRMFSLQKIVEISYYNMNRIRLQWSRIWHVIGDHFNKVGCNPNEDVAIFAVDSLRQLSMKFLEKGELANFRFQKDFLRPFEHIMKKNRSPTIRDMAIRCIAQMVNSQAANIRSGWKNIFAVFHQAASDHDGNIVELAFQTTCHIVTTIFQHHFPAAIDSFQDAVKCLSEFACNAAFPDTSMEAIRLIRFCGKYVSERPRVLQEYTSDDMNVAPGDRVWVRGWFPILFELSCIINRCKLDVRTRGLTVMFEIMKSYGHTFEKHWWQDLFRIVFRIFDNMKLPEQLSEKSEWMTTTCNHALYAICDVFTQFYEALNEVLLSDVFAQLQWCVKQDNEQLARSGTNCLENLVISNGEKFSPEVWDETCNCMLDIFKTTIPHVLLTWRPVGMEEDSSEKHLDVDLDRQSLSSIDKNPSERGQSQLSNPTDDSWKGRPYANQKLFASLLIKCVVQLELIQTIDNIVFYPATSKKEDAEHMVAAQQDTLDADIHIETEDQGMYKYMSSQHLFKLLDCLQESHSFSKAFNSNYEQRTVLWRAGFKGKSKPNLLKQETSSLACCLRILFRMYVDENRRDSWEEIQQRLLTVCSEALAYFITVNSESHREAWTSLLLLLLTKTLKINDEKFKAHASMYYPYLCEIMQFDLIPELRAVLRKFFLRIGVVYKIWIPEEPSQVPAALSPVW

BIG2 siRNA: siRNA targeting BIG2: CGAUGAAAUUAAAGCAGAA (SEQ ID NO. 11) (listed as RNA, chemistry not given here)
recovery of proteins in exosome preparations (BIG2; RNAi of BIG2 vs control, paired t-test n=4 p=0.0194): reduces
reduction of exosome release / vesicle yield (BIG2; siRNA targeting BIG2 vs control siRNA, monocytic cells, transfection efficiency ~50%): ~50%
knockdown of miR-K12-4 reporter expression in target cells by exosomes [1]: inhibited knockdown
